How the values were obtained:
[1] = Reactivity test toward 3MP and DTT (2nd screening, no enzyme); conditions: 50 μM 3MP, 40 μM DTT, no 3MST, mean±S.D. n = 4
Method: Reactivity of the hit compounds toward 3MP and DTT was examined. The final concentration of the compounds was 10 or 50 μM. The assay protocol was as follows: compounds were diluted with HSip-1 solution to 20 or 100 μM solution (10% DMSO) with a Multi-Drop Combi. Next, 3MP and DTT solution (10 μL, final concentrations: 50 μM 3MP and 40 μM DTT) was dispensed into the plates (total volume was 20 μL, 5% DMSO), and the plates were incubated at room temperature for 3 hr. The fluorescence of HSip-1 was measured (λex = 485 nm, λem = 520 nm) with a microplate reader (PHERAstar PLUS). Background control wells (i.e., no addition wells instead of addition of 3MP and DTT, n = 16) were also prepared for all plates.
Supplementary Note 3. […]
The second screening, which is a non-enzymatic assay, was performed to eliminate false-positive hit compounds such as naphthoquinone that react with the substrates, e.g., 3MP and DTT. Even in […]
μM 3MP and 40 μM DTT. The fluorescence increase in the presence or the absence of 3MP and DTT was regarded as 100% or 0% fluorescence signal, respectively, and we evaluated the ability of each compound (10 μM and 50 μM) to inhibit the fluorescence increase caused by the reaction with 3MP and DTT. In this assay, we selected compounds showing ‒25% ≤ inhibitory activity at both 10 and 50 μM ≤ 50% (545 compounds). Then, we further selected compounds showing more than 60% inhibitory activity in the previous confirmation test among 545 compounds (146 hit compounds) (Supplementary Fig. S7). These compounds were considered not to react with 3MP and DTT, at least in this concentration range. […]

[2] = target: T1, rhodanese (thiosulfate sulfurtransferase, Type II) (Bos taurus, UniProt P00586); assay: Rhodanese activity, conversion of cyanide to thiocyanide (Sörbo method); assay type: biochemical, bovine; conditions: 100 μM compound; room temperature 5 min; mean ± S.D.
T1 construct: Bovine liver rhodanese; purchased Sigma-Aldrich; host or cells: bovine liver
T1 sequence (P00586 1-297): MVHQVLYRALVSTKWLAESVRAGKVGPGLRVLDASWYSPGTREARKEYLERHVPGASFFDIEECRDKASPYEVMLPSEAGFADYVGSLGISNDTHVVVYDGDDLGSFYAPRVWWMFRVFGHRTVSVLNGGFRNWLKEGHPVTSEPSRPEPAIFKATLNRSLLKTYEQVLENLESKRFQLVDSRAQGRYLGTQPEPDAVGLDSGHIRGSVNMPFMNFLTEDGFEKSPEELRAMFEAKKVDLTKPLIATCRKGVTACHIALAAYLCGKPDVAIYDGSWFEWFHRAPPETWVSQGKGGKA
Method: Figure 2 Selectivity assessment of hit compounds for 3MST over other H2S/polysulfides-producing enzymes and rhodanese. (a) 3MST-Inhibitory activity of hit compounds at 10 and 100 μM in cell lysate of 3MST-expressing HEK293 cells. 100 μM 3MP and 100 μM DTT were added to the solution containing 0.1% DMSO as a cosolvent, and the mixture was incubated at 37 °C for 15 min. H2S production was measured by gas chromatography. All data are presented as the mean ± S.D. (100 μM: n = 3 or 4; 10 μM: n = 3). (b) Selectivity assessment of hit compounds at 100 μM towards CBS and CSE. Only DMSO was added to the control sample instead of DMSO solution containing hit compounds. H2S production was monitored by gas chromatography. All data are presented as the mean (n = 3). (c) Detection method for rhodanese activity (Sörbo method). (d) Selectivity assessment of hit compounds towards rhodanese. The results are mean ± S.D. (n = 4, three times). These values were determined based upon the absorbance of [Fe(SCN)3] at 460 nm (Sӧrbo method). Bovine rhodanese 1.3–1.7 units/mL, substrate: 52 mM Na2S2O3, 50 mM KCN, 0.004% (w/v) BSA, 100 μM compound and DMSO 1% (v/v) in 88 mM potassium phosphate buffer (pH 8.6) at room temperature for 5 min incubation. (e) Fluorescence confocal microscopic images of live COS7 cells transfected with 3MST or an empty vector[9] as a control. Cells were incubated with 50 μM SSP4, a fluorescent probe for sulfane sulfur, and 10 μM, 1 μM, 0.5 μM, 0.1 or 0 μM compound 3 in DMEM containing 0.6% DMSO for 30 min, then washed with HBSS and placed in fresh DMEM with 0‒10 μM compound 3 (Pre). 500 μM 3MP was added to the cells and the cells were incubated for 10 min (10 min). (f) Graphic representation of (e). F/F0 was calculated by dividing the fluorescence intensity of cells after addition of 500 μM 3MP (10 min) by that of cells before addition of 500 μM 3MP (Pre), then the mean F/F0 was determined from 5 cells. All data represent the mean ± standard error of the mean (SEM) of three experiments.
Following reagents were prepared.
B. 125 mM sodium thiosulfate (Na2S2O3) solution
C. 250 mM potassium cyanide (KCN) solution in reagent A
D. 14% (w/v) nitric acid (HNO3) solution
E. 410 mM ferric nitrate (Fe(NO3)3) in reagent D
F. 37% formaldehyde solution
G. 12.5 mM sodium thiosulfate (Na2S2O3) solution with 0.025% bovine serum albumin H. rhodanese solution in reagent G […]
Mixed by pipetting and equilibrate d to room
Reagent H (Enzyme Solution) 16 µL 16 µL - Mixed by pipetting and incubate d at 25℃ for exactly 5 minutes , and then added […]
Mixed by pipetting and then added […]
Mixed by pipetting , transferred the solution 44 µL 44 µL 44 µL […]
Mixed by pipetting and recorded the A460 nm for the Test, Control and Blank using a microplate […]
Supplementary Figure S10. […]

SMILES	No Enzyme: inhibition of HSip-1 fluorescence increase caused by 3MP and DTT ([1]; 10 μM compound) [%]	No Enzyme: inhibition of HSip-1 fluorescence increase caused by 3MP and DTT ([1]; 50 μM compound) [%]	Inhibition of rhodanese conversion of cyanide ions to thiocyanide ions [2] [%]
NC(=O)c1ccsc1NC(=O)CSc1nc2ccccc2c(=O)[nH]1 [compound 1]	10.1±6.2	17.2±4.0	18.2 ± 3.6
Cc1sc2nc(SCC(=O)c3ccc(O)cc3O)[nH]c(=O)c2c1C [compound 2]	7.4±10.6	-23.6±17.1	10.9 ± 5.5
O=C(O)c1cccc(NS(=O)(=O)c2ccccc2)c1 [compound 5]	11.4±4.9	10.5±4.5	9.7 ± 4.5
Cc1cc(=O)[nH]c(SCC(=O)c2cccc3ccccc23)n1 [compound 3]	7.4±5.5	6.3±4.5	1.7 ± 6.7

— article PMC5228037, “Discovery and Mechanistic Characterization of Selective Inhibitors of H2S-producing Enzyme: 3-Mercaptopyruvate Sulfurtransferase (3MST) Targeting Active-site Cysteine Persulfide” (Scientific Reports, 2017)
